This is an account of results in patent US4656288A, “Antibiotics, their production and use” (Takeda Chemical Industries, Ltd., priority 1984, dated 1987).

In brackets after ≈: the same amount, converted by molar mass. Structures can show the parent of a compound that is named as a salt. Where only a bound is given, the exact number is not on record here.

One series addresses T1, Penicillinase (Bacillus cereus, UniProt P10424).
T1 construct: purchased Calbio Chemical Co. of U.S.A
Put plainly: Stability against β-lactamase (penicillinase), test microorganism Escherichia coli PG 8. In kind it is biochemical. The conditions noted are these: Penicillinase derived from Bacillus cereus, -- = No inhibition zone indicated. An excerpt:
*^1 Derived from Bacillus cereus, produced by Calbio Chemical Co. of […]

In the next series the test system is Escherichia coli PG 8. Put plainly: Inhibition zone against test microorganism without addition of β-lactamase. In kind it is cell-based. To be noted: test microorganism Escherichia coli PG 8; no β-lactamase added.
The next series can be described thus: Solubility. Format: physicochemical.
The target in a further series is Cephalosporinase (Enterobacter cloacae, UniProt P05364). Put plainly: Stability against β-lactamase (cephalosporinase), test microorganism Escherichia coli PG 8. Format: biochemical. The conditions noted are these: Cephalosporinase derived from Enterobacter cloacae, -- = No inhibition zone indicated.
Sequence of Cephalosporinase (P05364 21-381): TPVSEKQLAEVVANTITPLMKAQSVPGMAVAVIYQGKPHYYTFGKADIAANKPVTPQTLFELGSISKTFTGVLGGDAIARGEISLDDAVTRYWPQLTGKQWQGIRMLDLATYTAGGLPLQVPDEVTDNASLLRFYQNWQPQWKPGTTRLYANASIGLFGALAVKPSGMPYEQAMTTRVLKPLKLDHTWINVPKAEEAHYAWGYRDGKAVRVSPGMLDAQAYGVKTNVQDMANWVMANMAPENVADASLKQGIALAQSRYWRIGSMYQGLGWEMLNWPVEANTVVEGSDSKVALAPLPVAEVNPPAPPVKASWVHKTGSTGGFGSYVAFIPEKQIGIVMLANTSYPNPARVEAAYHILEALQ
Series [1] concerns Klebsiella pneumoniae IFO 3317. Put plainly: Antimicrobial spectrum, minimal inhibitory concentration. In kind it is cell-based. To be noted: IFO3317, Bacto Antibiotic Medium 3 / yeast extract / agar medium, about 10^6 colony forming units/ml. The method, then:
(§1) (Note 1): As the culture medium, there was used a medium consisting of
(§2) 17.5 g of Bacto Antibiotic Medium 3 (produced by Difco Laboratories of
(§3) U.S.A.), 5.0 g of Bacto Yeast extract (produced by Difco Laboratories of
(§4) U.S.A.), […] of Bacto Agar (produced by Difco Laboratories of U.S.A.)
(§5) and 1000 ml of distilled water (without adjustment of pH), while as the
(§6) bacterial inoculation solution, there was used about 10^6 colony
(§7) 17.5 g of Bacto Antibiotic Medium 3 (produced by Difco Laboratories,
(§8) U.S.A.), […] of Bacto Yeast extract (produced by Difco Laboratories,
(§9) U.S.A.), 20 g of Bacto Agar (produced by Difco Laboratories, U.S.A.) and
(§10) 1000 ml of distilled water (without adjustment of pH), while as the
(§11) bacterial inoculation solution, there was employed about 10^6 colony

Series [2] has as its system Proteus mirabilis ATCC 21100. The series is described as above. Format: cell-based. To be noted: ATCC21100, Bacto Antibiotic Medium 3 / yeast extract / agar medium, about 10^6 colony forming units/ml. The method, then:
as §1, §2, §3, §4, §5, §6, §7, §8, §9, §10, §11

In series [3] the test system is Salmonella typhimurium IFO 12529. Described as above. In kind it is cell-based. The conditions noted are these: Salmonella enterica, Bacto Antibiotic Medium 3 / yeast extract / agar medium, about 10^6 colony forming units/ml. The procedure: as §1, §2, §3, §4, §5, §6, §7, §8, §9, §10, §11
The subject of series [4] is Escherichia coli NIHJ JC 2. The description is as above. The conditions noted are these: NIHJJC2, Bacto Antibiotic Medium 3 / yeast extract / agar medium, about 10^6 colony forming units/ml. In kind it is cell-based. The procedure: as §1, §2, §3, §4, §5, §6, §7, §8, §9, §10, §11
Series [5] relates to Alcaligenes faecalis IFO 13111. The description is as above. Format: cell-based. To be noted: IFO13111, Bacto Antibiotic Medium 3 / yeast extract / agar medium, about 10^6 colony forming units/ml. The procedure:
as §1, §2, §3, §4, §5, §6, §7, §8, §9, §10, §11

The test system of series [6] is Proteus morganii IFO 3168. The description is as above. Format: cell-based. To be noted: Morganella morganii, IFO3168, Bacto Antibiotic Medium 3 / yeast extract / agar medium, about 10^6 colony forming units/ml. The method, then: as §1, §2, §3, §4, §5, §6, §7, §8, §9, §10, §11
Series [7] concerns Bacillus subtilis NIHJ PCI 219. Described as above. Format: cell-based. To be noted: Bacto Antibiotic Medium 3 / yeast extract / agar medium, about 10^6 colony forming units/ml. The procedure: as §1, §2, §3, §4, §5, §6, §7, §8, §9, §10, §11
In series [8] the test system is Acinetobacter calcoaceticus IFO 13006. The series is described as above. In kind it is cell-based. To be noted: IFO13006, Bacto Antibiotic Medium 3 / yeast extract / agar medium, about 10^6 colony forming units/ml. The procedure: as §1, §2, §3, §4, §5, §6, §7, §8, §9, §10, §11
Series [9] has as its system Staphylococcus aureus FDA 209P. The series is described as above. In kind it is cell-based. The conditions noted are these: FDA209P, Bacto Antibiotic Medium 3 / yeast extract / agar medium, about 10^6 colony forming units/ml. The procedure:
as §1, §2, §3, §4, §5, §6, §7, §8, §9, §10, §11

The next series relates to Bacillus cereus FDA 5. Described as above. In kind it is cell-based. The conditions noted are these: FDA5, Bacto Antibiotic Medium 3 / yeast extract / agar medium, about 10^6 colony forming units/ml. The procedure:
as §1, §2, §3, §4, §5, §6, §7, §8, §9, §10, §11

Series [10] deals with Citrobacter freundii IFO 12681. The description is as above. In kind it is cell-based. The conditions noted are these: IFO12681, Bacto Antibiotic Medium 3 / yeast extract / agar medium, about 10^6 colony forming units/ml. The procedure:
as §1, §2, §3, §4, §5, §6, §7, §8, §9, §10, §11

Series [11] relates to Pseudomonas aeruginosa IFO 3080. Described as above. In kind it is cell-based. To be noted: IFO3080, Bacto Antibiotic Medium 3 / yeast extract / agar medium, about 10^6 colony forming units/ml. The method, then:
as §1, §2, §3, §4, §5, §6, §7, §8, §9, §10, §11

Series [12] concerns Serratia marcescens IFO 12648. Described as above. In kind it is cell-based. To be noted: IFO12648, Bacto Antibiotic Medium 3 / yeast extract / agar medium, about 10^6 colony forming units/ml. The method, then: as §1, §2, §3, §4, §5, §6, §7, §8, §9, §10, §11
Series [13] deals with Micrococcus luteus IFO 12708. The series is described as above. The conditions noted are these: IFO12708, Bacto Antibiotic Medium 3 / yeast extract / agar medium, about 10^6 colony forming units/ml. Format: cell-based. The method, then: as §1, §2, §3, §4, §5, §6, §7, §8, §9, §10, §11
Series [14] concerns Proteus vulgaris IFO 3988. The description is as above. Format: cell-based. To be noted: IFO3988, Bacto Antibiotic Medium 3 / yeast extract / agar medium, about 10^6 colony forming units/ml. The method, then: as §1, §2, §3, §4, §5, §6, §7, §8, §9, §10, §11
The nature of the next series: Acute toxicity. In kind it is in vivo. To be noted: administered subcutaneously at a dose of 400 mg/kf.
Series [15] in a line: Stability in an aqueous solution. In kind it is physicochemical.
The test system of series [16] is Staphylococcus aureus 308A-1. Put plainly: Therapeutic effect in the experimental mouse infection. To be noted: 308A1, sc, Staphylococcus aureus 308A-1, route of administration Subcutaneous. In kind it is in vivo.
Series [17] can be described thus: Interconversion of HPLC peaks A and B on standing in buffers. The conditions noted are these: buffers of pH 3, 5 and 7 at room temperature. In kind it is physicochemical. From the text:
TAN-588 as obtained in this manner has two peaks on the reverse-phase HPLC. These peaks are temporarily referred to as A and B, respectively, whereby the phenomena to be described in the following are observed. […] Therefore, it is thought impossible to separate TAN-588 itself into A and B by means of the presently known separation techniques. However, the conversion of TAN-588 into the p-nitrobenzyl ester or benzhydryl derivative makes it possible for such a compound to be separated into the A type and B type of the compound, respectively.

T1 sequence (P10424 44-306): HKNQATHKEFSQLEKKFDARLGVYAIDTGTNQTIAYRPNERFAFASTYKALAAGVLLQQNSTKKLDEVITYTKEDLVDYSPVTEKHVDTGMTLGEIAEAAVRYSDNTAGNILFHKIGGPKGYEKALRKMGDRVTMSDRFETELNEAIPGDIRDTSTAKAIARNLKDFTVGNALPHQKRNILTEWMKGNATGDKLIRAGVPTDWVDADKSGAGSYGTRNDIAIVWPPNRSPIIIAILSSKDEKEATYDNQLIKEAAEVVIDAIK
Excerpt for Cephalosporinase: *^2 Derived from Enterobacter cloacae.
*^3 No inhibition zone indicated.

Take `CO[C@@]1(NC(=O)CCC[C@@H](N)C(=O)O)C(=O)N2C(C(=O)O)=C(COC(N)=O)CS[C@@H]21` [CMC, reference compound]: at Penicillinase, the “inhibition zone, β-Lactamase: Penicillinase” value amounted to 34. In addition, in the series with Escherichia coli PG 8, the “inhibition zone, β-Lactamase: Without addition” value is given as 34.
As for `N[C@H]1CON([C@]2(C(=O)O)CCC(=O)O2)C1=O` [N-deacetyl TAN-588 (A type compound)], in the series “Solubility”, the Solubility in chloroform entry was “Sparingly soluble”, the “Solubility in diethyl ether” value is “Sparingly soluble”, the Solubility in dimethylsulfoxide result is on record as “Sparingly soluble” and the “Solubility in ethyl acetate” value is listed as “Sparingly soluble”. The Solubility in water result in the series “Solubility” is listed as “Soluble”.
With `N[C@H]1CON([C@@]2(C(=O)O)CCC(=O)O2)C1=O` [N-deacetyl TAN-588 (B type compound)], in the series “Solubility”, the Solubility in chloroform entry is recorded as “Sparingly soluble”, the “Solubility in diethyl ether” value is “Sparingly soluble”, the Solubility in dimethylsulfoxide entry is “Sparingly soluble” and the “Solubility in ethyl acetate” value is “Sparingly soluble”. The Solubility in water result in the series “Solubility” is listed as “Soluble”.
For `N[C@H]1CON(C2(C(=O)O)CCC(=O)O2)C1=O` (stereo partly shown) [N-deacetyl TAN-588], on Cephalosporinase, the “inhibition zone, β-Lactamase: Cephalosporinase” value was determined as 21.5. For the same compound, the “inhibition zone, β-Lactamase: Penicillinase” value against Penicillinase was 24.5. For the same compound, the “inhibition zone, β-Lactamase: Without addition” value in the series with Escherichia coli PG 8 is given as 22.5. Further, the MIC in series [1] was 100 µg/mL (≈ 434 µM); in [2], 100 µg/mL (≈ 434 µM); in [3], 50 µg/mL (≈ 217 µM); in series [4] it was 25 µg/mL (≈ 109 µM); in series [5], 100 µg/mL (≈ 434 µM); in series [6], over 100 µg/mL. Moreover, the MIC is 12.5 µg/mL (≈ 54.3 µM) in series [7]; 50 µg/mL (≈ 217 µM) in series [8]; 50 µg/mL (≈ 217 µM) in series [9]; 50 µg/mL (≈ 217 µM) against Bacillus cereus FDA 5; 50 µg/mL (≈ 217 µM) in series [10]; 50 µg/mL (≈ 217 µM) in [11]. The minimal inhibitory concentration (MIC) in series [12] was 25 µg/mL (≈ 109 µM); in series [13], 6.25 µg/mL (≈ 27.2 µM); in series [14], 100 µg/mL (≈ 434 µM). The “Solubility in diethyl ether” value in the series “Solubility” is “Sparingly soluble”. In addition, in the series “Solubility”, the Solubility in dimethylsulfoxide entry is recorded as “Sparingly soluble”. In addition, the “Solubility in ethyl acetate” value in the series “Solubility” is reported as “Sparingly soluble”. For the same compound, in the series “Solubility”, the Solubility in water entry was “Soluble”.
In the case of `CC1(C)S[C@@H]2[C@H](NC(=O)Cc3ccccc3)C(=O)N2[C@H]1C(=O)O` [PCG], the “inhibition zone, β-Lactamase: Without addition” value in the series on Escherichia coli PG 8 was 22.
As to `CC(=O)N[C@H]1CON(C2(C(=O)O)CCC(=O)O2)C1=O` (stereo partly shown) [TAN-588 sodium salt], the acute toxicity result in “Acute toxicity” is “no acute toxicity”. The “Stability in an aqueous solution” value is “slightly stable” in [15] (pH 3 and 7); “Stable” in [15] (pH 5); “unstable” in [15] (pH 9). Further, the MIC turned out to be 100 µg/mL in series [1]; 25 µg/mL in [2]; 50 µg/mL in series [3]; 50 µg/mL in series [4]; 50 µg/mL in series [5]; 100 µg/mL in series [6]. In addition, the minimum inhibitory concentration (MIC) in [7] was 3.13 µg/mL; in series [8] it was 25 µg/mL; in series [9], 3.13 µg/mL; in the series on Bacillus cereus FDA 5, 12.5 µg/mL; in [10], 100 µg/mL; in series [11], over 100 µg/mL. For the same compound, the MIC was found to be 50 µg/mL in series [12], 0.39 µg/mL in series [13] and 25 µg/mL in series [14]. Further, it took a dose of 25 mg/kg to reach the 50% effect level in [16] (ED50). In addition, the Solubility in chloroform entry in the series “Solubility” is “Sparingly soluble”. Also, in the series “Solubility”, the “Solubility in diethyl ether” value is recorded as “Sparingly soluble”. The Solubility in dimethylsulfoxide entry in “Solubility” is “Soluble”. The “Solubility in ethyl acetate” value in “Solubility” is on record as “Sparingly soluble”. Besides, the Solubility in water entry in the series “Solubility” is reported as “Soluble”.
Turning to `CC(=O)N[C@H]1CON(C2(C(=O)O)CCC(=O)O2)C1=O` (stereo partly shown) [TAN-588], the “interconversion of isolated peaks A and B” value in series [17] is listed as “A turns into B, with B turning into A, about one hour later at any pH values”.

The MIC is the smallest concentration in the dilution series that meets the test's criterion for growth inhibition. As a reminder, the ED50 is the dose that gives a 50% effect, or the effect in half of the subjects. The low end stands for an effect at a small dose, the high end for a need for a large dose.
